Converted amounts (≈) assume the structure as drawn. “And” between values parts separate entries of the source, which are not always exact repeats. Equal entries are not always repeated. Where two headings read alike, the source gives them in different places.
Assays:
P388 leukemia cells = test: Cytotoxicity on tissue culture: growth inhibition of cultured P388 leukemia cells; assay type: cell-based
Description: (1) Cytotoxicity (on tissue culture)
The barminomycin compounds of the present invention were capable of inhibiting the growth of cultured P388 leukemia cells in very low concentrations. […] For further detail, see the following table.

[1] = test system: Bacillus subtilis PCI 219; test: Antimicrobial activity, MIC by agar dilution method; assay type: cell-based; conditions: Bacillus subtilis PCI 219, agar dilution method
Procedure: (§1) The antimicrobial activities of barminomycin I and Ir of the present invention, and that of carminomycin III were determined by the agar dilution method.

E. coli BE1121 = test: as above; assay type: cell-based
Procedure: as §1

E. coli K-12 = test: as above; assay type: cell-based; conditions: E. coli K-12, agar dilution method
Procedure: as §1

E. coli NIHJ = test: as above; assay type: cell-based
Procedure: as §1

[2] = test system: Klebsiella p eumoniae PCI 602; test: as above; assay type: cell-based; conditions: Klebsiella p eumoniae PCI 602, agar dilution method
Procedure: as §1

[3] = test system: Micrococcus Lysodeikticus IFO 3333; test: as above; assay type: cell-based; conditions: Micrococcus Lysodeikticus IFO 3333, agar dilution method
Procedure: as §1

[4] = test system: Mycobacterium smegmatis 607; test: as above; assay type: cell-based; conditions: Mycobacterium smegmatis 607, agar dilution method
Procedure: as §1

Proteus vulgaris OX19 = test: as above; assay type: cell-based
Procedure: as §1

[5] = test system: Pseudomonas aeruginosa A3; test: as above; assay type: cell-based
Procedure: as §1

S. aureus MS8710 = test: as above; assay type: cell-based
Procedure: as §1

S. aureus MS9610 = test: as above; assay type: cell-based
Procedure: as §1

S. aureus Smith = test: as above; assay type: cell-based
Procedure: as §1

Serratia marcescens = test: as above; assay type: cell-based
Procedure: as §1

[6] = test system: Staphylococcus aureus FAD 209P; test: as above; assay type: cell-based
Procedure: as §1

L1210 leukemia cells = test: Anti-tumor activity: L1210 leukemia transplanted intraperitoneally into CDF1 mice, life prolongation; assay type: in vivo; conditions: for percentage life prolongation (T/C%): saline control = 100; for intoxication: L1210-bearing CDF1 mice
Procedure: L1210 leukemia cells (1 x 10^5 per animal) were transplanted intraperitoneally into CDF1 mice. Immediately after the transplantation, 0.25 ml of a selected test compound in solution was administered intraperitoneally in accordance with the schedule shown below. The anti-tumor activities of the test compounds in terms of percentage life prolongation (T/C%) are listed in the same table, with the number of days of survival of control mice to which physiological saline had been administered being taken as 100 (day 0 means the day of L1210 transplantation).

E. coli BE1186 = test: Antimicrobial activity, MIC by agar dilution method; assay type: cell-based
Procedure: as §1

[7] = 1.25 µg/mouse/day intraperitoneally, 0 - 9 days (daily)
[8] = 2.5 µg/mouse/day intraperitoneally, 0 - 9 days (daily)
[9] = 5 µg/mouse/day intraperitoneally, 0 - 9 days (daily)
[10] = 10 µg/mouse/day intraperitoneally, 0 - 9 days (daily)
[11] = 20 µg/mouse/day intraperitoneally, 0 - 9 days (daily)
[12] = 40 µg/mouse/day intraperitoneally, 0 - 9 days (daily)
[13] = 0.0078 µg/mouse/day intraperitoneally, 0 - 10 days (daily)
[14] = 0.0157 µg/mouse/day intraperitoneally, 0 - 10 days (daily)
[15] = 0.0625 µg/mouse/day intraperitoneally, 0 - 10 days (daily)
[16] = 0.125 µg/mouse/day intraperitoneally, 0 - 10 days (daily)
[17] = 0.25 µg/mouse/day intraperitoneally, 0 - 10 days (daily)

Compound	IC50 (P388 leukemia cells)	MIC [1] [µg/mL]	MIC (E. coli BE1121) [µg/mL]	MIC (E. coli K-12) [µg/mL]	MIC (E. coli NIHJ) [µg/mL]	MIC [2] [µg/mL]	MIC [3] [µg/mL]	MIC [4] [µg/mL]	MIC (Proteus vulgaris OX19) [µg/mL]	MIC [5] [µg/mL]	MIC (S. aureus MS8710) [µg/mL]	MIC (S. aureus MS9610) [µg/mL]	MIC (S. aureus Smith) [µg/mL]	MIC (Serratia marcescens) [µg/mL]	MIC [6] [µg/mL]	other results
CC(=O)C1(O)Cc2c(O)c3c(c(O)c2C(OC2CC(N)C(OC(CC(C)O)OC(C)CO)C(C)O2)C1)C(=O)c1c(O)cccc1C3=O (centres unmarked) [Carminomycin II, carminomycin II, reference compound]	0.010 µg/mL (≈ 0.0152 µM)															
carminomycin III [reference compound]	0.006 µg/mL	1.56	1.56	>50	>50	50	1.56	6.25	>50	>50	1.56	1.56	3.12	25	3.12	
CC(=O)[C@]1(O)Cc2c(O)c3c(c(O)c2[C@@H](O[C@H]2C[C@H](N)[C@H](O)[C@H](C)O2)C1)C(=O)c1c(O)cccc1C3=O [Carminomycin I, carminomycin I, reference compound]																IC50 (P388 leukemia cells; Mus musculus, read-out: IC50): 0.002 µg/mL (≈ 0.00389 µM)
CC(=O)C1(O)Cc2c(O)c3c(c(O)c2C(OC2CC4NCC(C)OC(CC(C)O)OC4C(C)O2)C1)C(=O)c1c(O)cccc1C3=O (single isomer, unassigned) [Barminomycin IIr]	0.002 µg/mL (≈ 0.00312 µM)															percentage life prolongation (T/C%) (L1210 leukemia cells; [7]): 123%; percentage life prolongation (T/C%) (L1210 leukemia cells; [8]): 129%; percentage life prolongation (T/C%) (L1210 leukemia cells; [9]): 123%; percentage life prolongation (T/C%) (L1210 leukemia cells; [10]): 86%; intoxication (L1210 leukemia cells; [11]): Intoxication; percentage life prolongation (T/C%) (L1210 leukemia cells; [11]): 43%; intoxication (L1210 leukemia cells; [12]): Intoxication; percentage life prolongation (T/C%) (L1210 leukemia cells; [12]): 37%
CC(=O)C1(O)Cc2c(O)c3c(c(O)c2C(OC2CC4NCC(C)OC(CC(C)O)OC4C(C)O2)C1)C(=O)c1c(O)cccc1C3=O (single isomer, unassigned) [Barminomycin Ir]	0.0015 µg/mL (≈ 0.00234 µM)	0.39 (≈ 0.608 µM)	0.2 (≈ 0.312 µM)	6.25 (≈ 9.74 µM)	50 (≈ 77.9 µM)	6.25 (≈ 9.74 µM)	0.78 (≈ 1.22 µM)	6.25 (≈ 9.74 µM)	>50	12.5 (≈ 19.5 µM)	1.56 (≈ 2.43 µM)	1.56 (≈ 2.43 µM)	0.78 (≈ 1.22 µM)	3.12 (≈ 4.86 µM)	0.78 (≈ 1.22 µM)	percentage life prolongation (T/C%) (L1210 leukemia cells; [7]): 97%; percentage life prolongation (T/C%) (L1210 leukemia cells; [8]): 129%; percentage life prolongation (T/C%) (L1210 leukemia cells; [9]): 141%; intoxication (L1210 leukemia cells; [10]): Tendency of intoxication; percentage life prolongation (T/C%) (L1210 leukemia cells; [10]): 49%; intoxication (L1210 leukemia cells; [11]): Intoxication; percentage life prolongation (T/C%) (L1210 leukemia cells; [11]): 37%; intoxication (L1210 leukemia cells; [12]): Intoxication; percentage life prolongation (T/C%) (L1210 leukemia cells; [12]): 25%; MIC (E. coli BE1186): 0.2 µg/mL (≈ 0.312 µM)
CC(=O)C1(O)Cc2c(O)c3c(c(O)c2C(OC2CC4N=CC(C)OC(CC(C)O)OC4C(C)O2)C1)C(=O)c1c(O)cccc1C3=O (centres unmarked) [Barminomycin I]	~ 0.00001 µg/mℓ	<0.1	<0.1	0.78 (≈ 1.22 µM)	3.12 (≈ 4.88 µM)	0.39 (≈ 0.61 µM)	0.2 (≈ 0.313 µM)	0.78 (≈ 1.22 µM)	3.12 (≈ 4.88 µM)	1.56 (≈ 2.44 µM)	0.2 (≈ 0.313 µM)	0.2 (≈ 0.313 µM)	0.2 (≈ 0.313 µM)	0.78 (≈ 1.22 µM)	0.2 (≈ 0.313 µM)	percentage life prolongation (T/C%) (L1210 leukemia cells; [13]): 160%; percentage life prolongation (T/C%) (L1210 leukemia cells; [14]): 187% and 120%; percentage life prolongation (T/C%) (L1210 leukemia cells; [15]): 213% and 147%; intoxication (L1210 leukemia cells; [16]): tendency of intoxication; percentage life prolongation (T/C%) (L1210 leukemia cells; [16]): 147%; intoxication (L1210 leukemia cells; [17]): Intoxicated to death at 4 days; percentage life prolongation (T/C%) (L1210 leukemia cells; [17]): 120%; MIC (E. coli BE1186): <0.1 µg/mL
COc1cccc2c1C(=O)c1c(O)c3c(c(O)c1C2=O)C[C@@](O)(C(=O)CO)C[C@@H]3O[C@H]1C[C@H](N)[C@H](O)[C@H](C)O1 [Adriamycin, adriamycin, reference compound]																IC50 (P388 leukemia cells; Mus musculus, read-out: IC50): 0.013 µg/mL (≈ 0.0239 µM)
CC(=O)C1(O)Cc2c(O)c3c(c(O)c2C(OC2CC4N=CC(C)OC(CC(C)O)OC4C(C)O2)C1)C(=O)c1c(O)cccc1C3=O (single isomer, unassigned) [Barminomycin II]	~ 0.00002 µg/mℓ															percentage life prolongation (T/C%) (L1210 leukemia cells; [13]): >500%, >500%; percentage life prolongation (T/C%) (L1210 leukemia cells; [14]): 120%; intoxication (L1210 leukemia cells; [15]): tendency of intoxication; intoxication (L1210 leukemia cells; [16]): tendency of intoxication; percentage life prolongation (T/C%) (L1210 leukemia cells; [16]): 173%; intoxication (L1210 leukemia cells; [17]): Intoxicated to death at 4 days, and 5 days; percentage life prolongation (T/C%) (L1210 leukemia cells; 0.313 µg/mouse/day intraperitoneally, 0 - 10 days (daily)): 140%

Source: EP0206138A1, “Anthracycline compounds, a process for their preparation and their use as medicaments” (priority 1985, dated 1986)
